Columns and labels:
Format in all cases: biochemical
JAK1 = JAK1 (Homo sapiens (Human), UniProt P23458); test: JAK/TYK2 assay (Kinase Glo luminescence), JAK1; settings: 7.5 nM enzyme, 2 uM ATP, 30 uM IRS-1, 1 hr
Procedure: (§1) 10 mM test compound stock or 1 mM control compound stock (tofocitinib, ruxolitinib or staurosporine) in DMSO was diluted to 0.4 mM in DMSO. A 3-fold series dilution was then performed in DMSO to generate 10 different compound concentrations. The assay was carried out in 384-well white plate. 0.5 uL of 40× compound DMSO solution at different concentrations was mixed with 10 uL 2× enzyme prepared in reaction buffer (20 mM HEPES, 10 mM MgCl2, 0.01% Tween, 1 mM DTT, pH 7.5). 10 uL 2× substrate mixture prepared in reaction buffer was then added to start the reaction. A short spin was done to settle down all solutions to the bottom of the plate. Final concentrations of test compound in the reaction mixture were 10000, 3333, 1111, 370, 123, 41.2, 13.7, 4.57, 1.52and 0.51 nM. Concentrations of control compound were ten times less. Enzymatic reaction was conducted at 25° C. for 1-2 hours. 10 uL of Kinase Glo Reagents was added to stop the reaction and generate the luminescent signal which was measured using Envision. Luminescence signal was inversely related to kinase activity. […] The mixture without any compound was the positive control.

JAK2 = JAK2 (Homo sapiens (Human), UniProt O60674); test: JAK/TYK2 assay (Kinase Glo luminescence), JAK2; settings: 0.8 nM enzyme, 2 uM ATP, 4 uM pEY, 1 hr
Procedure: as §1

JAK3 = JAK3 (Homo sapiens (Human), UniProt P52333); test: JAK/TYK2 assay (Kinase Glo luminescence), JAK3; settings: 1.5 nM enzyme, 2 uM ATP, 4 uM pEY, 1 hr
Procedure: as §1

TYK2 = TYK2 (Homo sapiens (Human), UniProt P29597); test: JAK/TYK2 assay (Kinase Glo luminescence), TYK2; settings: 9 nM enzyme, 2 uM ATP, 30 uM IRS-1, 1 hr
Procedure: as §1

TYK2, sequence (P29597 whole entry, species assumed): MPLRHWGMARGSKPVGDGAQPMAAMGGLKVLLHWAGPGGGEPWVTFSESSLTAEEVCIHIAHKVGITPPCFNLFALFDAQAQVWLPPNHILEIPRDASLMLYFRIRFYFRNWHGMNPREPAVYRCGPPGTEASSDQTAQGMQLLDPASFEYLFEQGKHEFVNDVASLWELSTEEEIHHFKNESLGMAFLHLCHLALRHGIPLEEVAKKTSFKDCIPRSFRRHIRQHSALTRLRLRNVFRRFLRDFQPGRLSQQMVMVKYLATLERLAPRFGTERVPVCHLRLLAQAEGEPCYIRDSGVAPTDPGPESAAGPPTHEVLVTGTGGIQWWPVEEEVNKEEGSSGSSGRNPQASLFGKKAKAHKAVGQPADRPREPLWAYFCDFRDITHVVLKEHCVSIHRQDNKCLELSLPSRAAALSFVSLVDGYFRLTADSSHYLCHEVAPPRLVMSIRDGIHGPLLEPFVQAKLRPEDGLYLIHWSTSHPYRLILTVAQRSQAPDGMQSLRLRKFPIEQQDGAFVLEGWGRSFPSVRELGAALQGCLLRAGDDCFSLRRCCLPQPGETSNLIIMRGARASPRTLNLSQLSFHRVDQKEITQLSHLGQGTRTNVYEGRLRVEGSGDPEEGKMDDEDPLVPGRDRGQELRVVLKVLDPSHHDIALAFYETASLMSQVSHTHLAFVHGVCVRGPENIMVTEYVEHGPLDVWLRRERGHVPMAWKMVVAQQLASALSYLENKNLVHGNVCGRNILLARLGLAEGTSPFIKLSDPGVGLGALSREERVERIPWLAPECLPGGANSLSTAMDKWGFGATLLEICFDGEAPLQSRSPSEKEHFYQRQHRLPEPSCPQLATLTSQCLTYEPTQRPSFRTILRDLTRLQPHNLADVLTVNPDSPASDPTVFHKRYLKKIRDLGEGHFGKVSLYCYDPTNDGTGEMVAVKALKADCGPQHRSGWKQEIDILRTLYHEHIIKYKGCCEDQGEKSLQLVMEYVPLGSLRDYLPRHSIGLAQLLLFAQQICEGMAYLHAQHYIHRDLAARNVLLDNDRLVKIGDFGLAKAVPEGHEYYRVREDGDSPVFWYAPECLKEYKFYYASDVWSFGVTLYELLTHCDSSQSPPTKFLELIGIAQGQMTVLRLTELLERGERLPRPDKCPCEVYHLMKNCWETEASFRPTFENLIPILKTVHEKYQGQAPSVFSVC
JAK2, sequence (O60674 whole entry, species assumed): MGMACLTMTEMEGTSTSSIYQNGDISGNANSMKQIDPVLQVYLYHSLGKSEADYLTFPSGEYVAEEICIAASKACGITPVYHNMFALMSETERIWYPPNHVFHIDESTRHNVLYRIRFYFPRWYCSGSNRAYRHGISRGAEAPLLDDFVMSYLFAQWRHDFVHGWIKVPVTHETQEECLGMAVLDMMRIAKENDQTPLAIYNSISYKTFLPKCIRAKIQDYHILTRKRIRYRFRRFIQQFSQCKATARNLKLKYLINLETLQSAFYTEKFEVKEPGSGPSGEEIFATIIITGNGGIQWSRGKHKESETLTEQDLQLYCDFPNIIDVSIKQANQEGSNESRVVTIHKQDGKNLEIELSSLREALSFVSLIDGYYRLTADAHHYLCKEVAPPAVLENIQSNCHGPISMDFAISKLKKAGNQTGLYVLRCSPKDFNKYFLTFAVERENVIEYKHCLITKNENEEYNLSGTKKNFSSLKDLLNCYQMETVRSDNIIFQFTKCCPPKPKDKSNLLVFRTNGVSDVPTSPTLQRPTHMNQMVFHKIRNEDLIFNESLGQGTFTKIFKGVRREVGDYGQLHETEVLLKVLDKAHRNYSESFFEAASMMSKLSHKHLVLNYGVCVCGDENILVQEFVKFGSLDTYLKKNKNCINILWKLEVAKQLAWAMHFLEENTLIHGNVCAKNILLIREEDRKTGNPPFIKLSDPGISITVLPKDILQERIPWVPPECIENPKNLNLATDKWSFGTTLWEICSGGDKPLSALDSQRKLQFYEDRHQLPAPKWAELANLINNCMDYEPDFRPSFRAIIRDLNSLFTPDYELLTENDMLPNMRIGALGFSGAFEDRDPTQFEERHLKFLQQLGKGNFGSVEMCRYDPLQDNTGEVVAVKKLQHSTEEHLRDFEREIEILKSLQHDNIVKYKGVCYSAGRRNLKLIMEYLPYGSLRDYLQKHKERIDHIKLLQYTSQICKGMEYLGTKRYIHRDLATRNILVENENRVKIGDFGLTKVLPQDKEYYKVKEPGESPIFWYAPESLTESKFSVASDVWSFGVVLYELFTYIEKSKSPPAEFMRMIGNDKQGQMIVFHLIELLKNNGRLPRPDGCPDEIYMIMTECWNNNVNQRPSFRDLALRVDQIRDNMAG
JAK1, sequence (P23458 whole entry, species assumed): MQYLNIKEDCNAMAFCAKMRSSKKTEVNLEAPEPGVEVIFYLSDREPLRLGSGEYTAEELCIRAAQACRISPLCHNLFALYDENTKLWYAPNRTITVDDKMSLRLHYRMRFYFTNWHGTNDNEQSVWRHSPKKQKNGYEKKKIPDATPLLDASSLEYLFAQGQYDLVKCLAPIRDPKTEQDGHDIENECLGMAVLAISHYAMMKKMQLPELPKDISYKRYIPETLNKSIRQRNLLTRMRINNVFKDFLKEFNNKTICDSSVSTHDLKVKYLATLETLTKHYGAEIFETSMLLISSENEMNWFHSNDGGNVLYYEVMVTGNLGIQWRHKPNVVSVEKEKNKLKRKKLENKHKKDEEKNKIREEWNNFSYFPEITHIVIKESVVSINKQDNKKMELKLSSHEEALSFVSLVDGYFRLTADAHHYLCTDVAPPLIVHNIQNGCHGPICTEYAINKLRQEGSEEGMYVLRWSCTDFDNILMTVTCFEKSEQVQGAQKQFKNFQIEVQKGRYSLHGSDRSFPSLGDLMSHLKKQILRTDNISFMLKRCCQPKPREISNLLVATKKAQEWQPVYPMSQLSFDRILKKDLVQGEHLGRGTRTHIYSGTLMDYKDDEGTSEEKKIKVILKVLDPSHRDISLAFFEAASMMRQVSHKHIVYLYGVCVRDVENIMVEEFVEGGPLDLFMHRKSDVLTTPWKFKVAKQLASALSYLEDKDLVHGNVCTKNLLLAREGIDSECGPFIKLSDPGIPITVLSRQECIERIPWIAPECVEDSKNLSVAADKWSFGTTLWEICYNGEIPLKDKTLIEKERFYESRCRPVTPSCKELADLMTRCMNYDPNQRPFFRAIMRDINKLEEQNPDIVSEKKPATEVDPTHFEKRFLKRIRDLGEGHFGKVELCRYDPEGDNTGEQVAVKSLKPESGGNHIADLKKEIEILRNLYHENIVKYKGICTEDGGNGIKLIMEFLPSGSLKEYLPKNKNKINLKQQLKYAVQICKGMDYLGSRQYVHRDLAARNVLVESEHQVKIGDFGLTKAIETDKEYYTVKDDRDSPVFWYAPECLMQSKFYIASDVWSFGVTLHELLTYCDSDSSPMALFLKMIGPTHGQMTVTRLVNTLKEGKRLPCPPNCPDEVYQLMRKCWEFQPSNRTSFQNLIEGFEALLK
JAK3, sequence (P52333 whole entry, species assumed): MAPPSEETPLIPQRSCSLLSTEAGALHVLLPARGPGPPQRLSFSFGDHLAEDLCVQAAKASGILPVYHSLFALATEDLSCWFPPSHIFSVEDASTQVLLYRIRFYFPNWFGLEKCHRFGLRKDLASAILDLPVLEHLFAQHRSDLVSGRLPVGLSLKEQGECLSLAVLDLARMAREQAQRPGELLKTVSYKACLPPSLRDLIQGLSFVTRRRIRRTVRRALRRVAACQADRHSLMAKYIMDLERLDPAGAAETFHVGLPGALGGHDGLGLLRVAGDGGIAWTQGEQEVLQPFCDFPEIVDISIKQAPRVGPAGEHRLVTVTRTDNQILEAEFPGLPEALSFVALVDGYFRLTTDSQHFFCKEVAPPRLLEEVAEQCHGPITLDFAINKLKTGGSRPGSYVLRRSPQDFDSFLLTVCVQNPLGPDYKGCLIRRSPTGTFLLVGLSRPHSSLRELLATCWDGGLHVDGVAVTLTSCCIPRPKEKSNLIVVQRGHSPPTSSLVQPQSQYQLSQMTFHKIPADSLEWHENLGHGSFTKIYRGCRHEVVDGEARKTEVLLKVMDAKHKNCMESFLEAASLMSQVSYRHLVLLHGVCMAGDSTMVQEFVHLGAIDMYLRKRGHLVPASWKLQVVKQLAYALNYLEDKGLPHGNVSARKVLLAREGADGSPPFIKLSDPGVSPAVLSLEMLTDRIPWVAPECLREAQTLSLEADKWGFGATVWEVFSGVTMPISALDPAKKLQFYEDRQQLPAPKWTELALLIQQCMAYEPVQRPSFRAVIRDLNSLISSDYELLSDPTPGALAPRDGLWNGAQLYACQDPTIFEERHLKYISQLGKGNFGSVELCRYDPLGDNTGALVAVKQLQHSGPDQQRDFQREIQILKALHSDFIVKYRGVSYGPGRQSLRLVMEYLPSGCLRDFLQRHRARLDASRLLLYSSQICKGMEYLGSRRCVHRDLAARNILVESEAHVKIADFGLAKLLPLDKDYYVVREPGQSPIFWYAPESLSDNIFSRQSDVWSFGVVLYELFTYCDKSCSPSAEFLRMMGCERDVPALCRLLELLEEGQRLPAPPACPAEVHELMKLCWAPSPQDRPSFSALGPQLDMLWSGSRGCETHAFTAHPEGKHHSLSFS

| IC50 (JAK1) | IC50 (JAK2) | IC50 (JAK3) | IC50 (TYK2) | Structure (SMILES) |
| --- | --- | --- | --- | --- |
| < 100 nM | < 100 nM | < 100 nM | < 100 nM | CCOC(=O)Cn1cc(Nc2ncc3ccn(CC4(C)CCCCC4)c3n2)cn1 [Compound 47, ethyl 2-(4-((7-((1-methylcyclohexyl)methyl)-7H-pyrrolo[2,3-d]pyrimidin-2-yl)amino)-1H-pyrazol-1-yl)acetate] |
| < 100 nM | < 100 nM | < 100 nM | < 100 nM | CCOC(=O)Cn1cc(Nc2ncc3ccn(C[C@@H]4C[C@@H]5C[C@@H]5C4)c3n2)cn1 [Compound 48, ethyl 2-(4-((7-(((1R,3r,5S)-bicyclo[3.1.0]hexan-3-yl)methyl)-7H-pyrrolo[2,3-d]pyrimidin-2-yl)amino)-1H-pyrazol-1-yl)acetate] |
| < 100 nM | < 100 nM | < 100 nM | < 100 nM | CCOC(=O)Cn1cc(Nc2ncc3ccn(CC(CC)C(C)C)c3n2)cn1 (stereo not shown) [Compound 49, ethyl 2-(4-((7-(2-ethyl-3-methylbutyl)-7H-pyrrolo[2,3-d]pyrimidin-2-yl)amino)-1H-pyrazol-1-yl)acetate] |
| < 100 nM | < 100 nM | < 100 nM | < 100 nM | CCOC(=O)Cn1cc(Nc2ncc3ccn(CC(C(C)C)C(C)C)c3n2)cn1 [Compound 50, ethyl 2-(4-((7-(2-isopropyl-3-methylbutyl)-7H-pyrrolo[2,3-d]pyrimidin-2-yl)amino)-1H-pyrazol-1-yl)acetate] |
| < 100 nM | < 100 nM | < 100 nM | < 100 nM | CCOC(=O)Cn1cc(Nc2ncc3ccn(C[C@H]4CC[C@H](O)CC4)c3n2)cn1 [Compound 51, ethyl 2-(4-((7-(((1r,4r)-4-hydroxycyclohexyl)methyl)-7H-pyrrolo[2,3-d]pyrimidin-2-yl)amino)-1H-pyrazol-1-yl)acetate] |
| 100 to 1000 nM | < 100 nM | < 100 nM | < 100 nM | CCOC(=O)Cn1cc(Nc2ncc3ccn(C[C@H]4CC[C@@H](O)CC4)c3n2)cn1 [Compound 52, ethyl 2-(4-((7-(((1s,4s)-4-hydroxycyclohexyl)methyl)-7H-pyrrolo[2,3-d]pyrimidin-2-yl)amino)-1H-pyrazol-1-yl)acetate] |
| 100 to 1000 nM | < 100 nM | < 100 nM | 100 to 1000 nM | CCOC(=O)Cn1cc(Nc2ncc3ccn(Cc4csc(C)n4)c3n2)cn1 [Compound 55, ethyl 2-(4-((7-((2-methylthiazol-4-yl)methyl)-7H-pyrrolo[2,3-d]pyrimidin-2-yl)amino)-1H-pyrazol-1-yl)acetate] |
| < 100 nM | < 100 nM | < 100 nM | < 100 nM | CCOC(=O)Cn1cc(Nc2ncc3ccn(CC(CC)CO)c3n2)cn1 (stereo not shown) [Compound 65, ethyl 2-(4-((7-(2-(hydroxymethyl)butyl)-7H-pyrrolo[2,3-d]pyrimidin-2-yl)amino)-1H-pyrazol-1-yl)acetate] |
| < 100 nM | < 100 nM | < 100 nM | < 100 nM | CCOC(=O)Cn1cc(Nc2ncc3ccn(CC(CC)CC#N)c3n2)cn1 (stereo not shown) [Compound 70, ethyl 2-(4-((7-(2-(cyanomethyl)butyl)-7H-pyrrolo[2,3-d]pyrimidin-2-yl)amino)-1H-pyrazol-1-yl)acetate] |
| < 100 nM | < 100 nM | < 100 nM | < 100 nM | CC[C@H](Cn1ccc2cnc(Nc3cnn(C4CCOC4=O)c3)nc21)C(C)C (stereo partly drawn) [Compound 82, 3-(4-((7-((S)-2-ethyl-3-methylbutyl)-7H-pyrrolo[2,3-d]pyrimidin-2-yl)amino)-1H-pyrazol-1-yl)dihydrofuran-2(3H)-one] |

The next lines start with the compound.

| Structure (SMILES) | IC50 (JAK1) | IC50 (JAK2) | IC50 (JAK3) | IC50 (TYK2) |
| --- | --- | --- | --- | --- |
| CCC(Cn1ccc2cnc(Nc3cnn(CC(=O)O)c3)nc21)C(C)C (stereo not shown) [Compound 29, 2-(4-((7-(2-ethyl-3-methylbutyl)-7H-pyrrolo[2,3-d]pyrimidin-2-yl)amino)-1H-pyrazol-1-yl)acetic acid] | < 100 nM | < 100 nM | < 100 nM | < 100 nM |
| CCOC(=O)CCn1cc(Nc2ncc3ccn(CC(CC)C(C)C)c3n2)cn1 (stereo not shown) [Compound 30, ethyl 3-(4-((7-(2-ethyl-3-methylbutyl)-7H-pyrrolo[2,3-d]pyrimidin-2-yl)amino)-1H-pyrazol-1-yl)propanoate] | < 100 nM | < 100 nM | < 100 nM | < 100 nM |
| CCC(Cn1ccc2cnc(Nc3cnn(CCC(=O)O)c3)nc21)C(C)C (stereo not shown) [Compound 31, 3-(4-((7-(2-ethyl-3-methylbutyl)-7H-pyrrolo[2,3-d]pyrimidin-2-yl)amino)-1H-pyrazol-1-yl)propanoic acid] | < 100 nM | < 100 nM | < 100 nM | < 100 nM |
| CCOC(=O)Cn1cc(Nc2ncc3ccn(CC45CC6CC(CC(C6)C4)C5)c3n2)cn1 [Compound 34, ethyl 2-(4-((7-(((s,3s)-adamantan-1-yl)methyl)-7H-pyrrolo[2,3-d]pyrimidin-2-yl)amino)-1H-pyrazol-1-yl)acetate] | 100 to 1000 nM | < 100 nM | < 100 nM | < 100 nM |
| CCOC(=O)Cn1cc(Nc2ncc3ccn(CC4CCCCC4(F)F)c3n2)cn1 (stereo not shown) [Compound 35, ethyl 2-(4-((7-((2,2-difluorocyclohexyl)methyl)-7H-pyrrolo[2,3-d]pyrimidin-2-yl)amino)-1H-pyrazol-1-yl)acetate] | < 100 nM | < 100 nM | < 100 nM | < 100 nM |
| CCOC(=O)Cn1cc(Nc2ncc3ccn(CC4CCCC(F)(F)C4)c3n2)cn1 (stereo not shown) [Compound 36, ethyl 2-(4-((7-((3,3-difluorocyclohexyl)methyl)-7H-pyrrolo[2,3-d]pyrimidin-2-yl)amino)-1H-pyrazol-1-yl)acetate] | < 100 nM | < 100 nM | < 100 nM | < 100 nM |
| O=C(O)Cn1cc(Nc2ncc3ccn(CC4CCCCC4(F)F)c3n2)cn1 (stereo not shown) [Compound 37, 2-(4-((7-((2,2-difluorocyclohexyl)methyl)-7H-pyrrolo[2,3-d]pyrimidin-2-yl)amino)-1H-pyrazol-1-yl)acetic acid] | < 100 nM | < 100 nM | < 100 nM | < 100 nM |
| O=C(O)Cn1cc(Nc2ncc3ccn(CC4CCCC(F)(F)C4)c3n2)cn1 (stereo not shown) [Compound 38, 2-(4-((7-((3,3-difluorocyclohexyl)methyl)-7H-pyrrolo[2,3-d]pyrimidin-2-yl)amino)-1H-pyrazol-1-yl)acetic acid] | < 100 nM | < 100 nM | < 100 nM | < 100 nM |
| CCOC(=O)Cn1cc(Nc2ncc3ccn(CC4CC5CCC4C5)c3n2)cn1 (stereo not shown) [Compound 40, ethyl 2-(4-((7-(bicyclo[2.2.1]heptan-2-ylmethyl)-7H-pyrrolo[2,3-d]pyrimidin-2-yl)amino)-1H-pyrazol-1-yl)acetate] | < 100 nM | < 100 nM | < 100 nM | < 100 nM |
| CCOC(=O)Cn1cc(Nc2ncc3ccn(CC4(C)CCCC4)c3n2)cn1 [Compound 41, ethyl 2-(4-((7-((1-methylcyclopentyl)methyl)-7H-pyrrolo[2,3-d]pyrimidin-2-yl)amino)-1H-pyrazol-1-yl)acetate] | < 100 nM | < 100 nM | < 100 nM | < 100 nM |
| CCOC(=O)Cn1cc(Nc2ncc3ccn(CC4CCCCC4C)c3n2)cn1 (stereo not shown) [Compound 42, ethyl 2-(4-((7-((2-methylcyclohexyl)methyl)-7H-pyrrolo[2,3-d]pyrimidin-2-yl)amino)-1H-pyrazol-1-yl)acetate] | < 100 nM | < 100 nM | < 100 nM | < 100 nM |
| CCOC(=O)Cn1cc(Nc2ncc3ccn(CC4CCCCCC4)c3n2)cn1 [Compound 43, ethyl 2-(4-((7-(cycloheptylmethyl)-7H-pyrrolo[2,3-d]pyrimidin-2-yl)amino)-1H-pyrazol-1-yl)acetate] | 100 to 1000 nM | < 100 nM | < 100 nM | < 100 nM |
| CCOC(=O)Cn1ccc(Nc2ncc3ccn(CC(CC)CC)c3n2)n1 [Compound 44, ethyl 2-(3-((7-(2-ethylbutyl)-7H-pyrrolo[2,3-d]pyrimidin-2-yl)amino)-1H-pyrazol-1-yl)acetate] | 1000 to 10000 nM | 100 to 1000 nM | 100 to 1000 nM | 100 to 1000 nM |
| CCOC(=O)Cn1cc(Nc2ncc3ccn(CC4CCCC(C)C4)c3n2)cn1 (stereo not shown) [Compound 45, ethyl 2-(4-((7-((3-methylcyclohexyl)methyl)-7H-pyrrolo[2,3-d]pyrimidin-2-yl)amino)-1H-pyrazol-1-yl)acetate] | < 100 nM | < 100 nM | < 100 nM | < 100 nM |
| CCOC(=O)Cn1cc(Nc2ncc3ccn(CC4CCC(C)CC4)c3n2)cn1 (stereo not shown) [Compound 46, ethyl 2-(4-((7-((4-methylcyclohexyl)methyl)-7H-pyrrolo[2,3-d]pyrimidin-2-yl)amino)-1H-pyrazol-1-yl)acetate] | < 100 nM | < 100 nM | < 100 nM | < 100 nM |

Reference: patent US11136329B2, “JAK inhibitors” (Vimalan Biosciences, Inc., priority 2019, dated 2021)
